Experimental data as given in patent US20170240566A1, “AMINO-SUBSTITUTED ANNULATED PYRIMIDINES AND USE THEREOF” (Bayer Pharma Aktiengesellschaft, priority 2014, published 2017).
In brackets after ≈: the same amount, converted by molar mass.

What was measured:
[1] = biological target: T1, human phosphodiesterase 5 (PDE 5) (Homo sapiens, UniProt O76074); test: Inhibition of human phosphodiesterase 5 (PDE 5); type: biochemical; details: PDE 5 preparation from human platelets; in some cases means of individual determinations
T1 construct: PDE 5 preparations are obtained from human platelets by disruption; from tissue; host or cells: human platelets
Procedure: B-3. Inhibition of human phosphodiesterase 5 (PDE 5)
PDE 5 preparations are obtained from human platelets by disruption (Microfluidizer®, 800 bar, 3 passes), followed by centrifugation (75 000 g, 60 min, 4° C.) and ion exchange chromatography of the supernatant on a Mono Q 10/10 column (linear sodium chloride gradient, elution with a 0.2-0.3M solution of sodium chloride in buffer (20 mM Hepes pH 7.2, 2 mM magnesium chloride). Fractions having PDE 5 activity are combined (PDE 5 preparation) and stored at −80° C.
To determine their in vitro action on human PDE 5, the test substances are dissolved in 100% DMSO and serially diluted. Typically, dilution series (1:3) from 200 μM to 0.091 μM are prepared (resulting final concentrations in the test: 4 μM to 0.0018 μM). In each case 2 μl of the diluted substance solutions are placed into the wells of microtitre plates (Isoplate-96/200W; Perkin Elmer). Subsequently, 50 μl of a dilution of the above-described PDE 5 preparation are added. The dilution of the PDE 5 preparation is chosen such that during the later incubation less than 70% of the substrate are converted (typical dilution: 1:100; dilution buffer: 50 mM tris/hydrochloric acid pH 7.5, 8.3 mM magnesium chloride, 1.7 mM EDTA, 0.2% BSA). The substrate, [8-^3H] cyclic guanosine-3′,5′-monophosphate (1 μCi/μl; Perkin Elmer), is diluted 1:2000 with assay buffer (50 mM tris/hydrochloric acid pH 7.5, 8.3 mM magnesium chloride, 1.7 mM EDTA) to a concentration of 0.0005 μμCi/μl. By addition of 50 μl (0.025 μCi) of the diluted substrate, the enzyme reaction is finally started. The test mixtures are incubated at room temperature for 60 min and the reaction is stopped by adding 25 μl of a suspension of 18 mg/ml yttrium scintillation proximity beads in water (phosphodiesterase beads for SPA assays, RPNQ 0150, Perkin Elmer). The microtitre plates are sealed with a film and left to stand at room temperature for 60 min. Subsequently, the plates are analysed for 30 s per well in a Microbeta scintillation counter (Perkin Elmer). IC50 values are determined using the graphic plot of the substance concentration against percentage PDE 5 inhibition.

[2] = system: recombinant guanylate cyclase reporter cell line; test: Effect on a recombinant guanylate cyclase reporter cell line; type: cell-based; details: minimum effective concentration; in some cases means of individual determinations; read-out: MEC
Procedure: B-2. Effect on a Recombinant Guanylate Cyclase Reporter Cell Line
The cellular activity of the compounds of the invention is determined using a recombinant guanylate cyclase reporter cell line, as described in F. Wunder et al., Anal. Biochem. 339, 104-112 (2005). Representative values (MEC=minimum effective concentration) for the compounds of the invention are shown in the table below (Table 1; in some cases as means of individual determinations): […]

[3] = Solubility of substances in buffer pH 6.5; type: physicochemical; details: aqueous buffer, kinetic from dmso stock, PBS buffer pH 6.5, room temperature
Procedure: B-10. Determination of the Solubility of Substances in Buffer pH 6.5
40 μl of DMSO are added to 2 mg of a test substance [50 g/l]. 10 μl of this solution are removed and introduced into 990 μl of PBS buffer pH 6.5 (c=500 μg/ml). This solution/suspension is shaken at room temperature for 24 h. After 30 min of ultracentrifugation at 114 000 g, the supernatant is removed, diluted with ACN/water 8:2 and analyzed by LC-MSMS.
For calibration, likewise 10 pi are removed from the DMSO stock solution and introduced into 823 μl of DMSO (c=600 μg/ml). Quantification takes place using a five-point calibration curve.

`Cc1nc2c(cc1F)c(-c1nc(NCC(N)(CF)CF)c3c(n1)NC(=O)C3(C)C)nn2Cc1ccccc1F` [Example 2, 4-{[2-Amino-3-fluoro-2-(fluoromethyl)propyl]amino}-2-[5-fluoro-1-(2-fluorobenzyl)-6-methyl-1H-pyrazolo[3,4-b]pyridin-3-yl]-5,5-dimethyl-5,7-dihydro-6H-pyrrolo[2,3-d]pyrimidin-6-one] showed an IC50 [1] of 160 nM, a minimal effective concentration [2] of 0.1 µM and a solubility at 24 h [3] of 5.1 µg/mL (≈ 9.4 µM).
Work on `CC1(C)C(=O)Nc2nc(-c3nn(Cc4ncccc4F)c4ncc(F)cc34)nc(NCC(N)(CF)CF)c21` [Example 5, 4-{[2-Amino-3-fluoro-2-(fluoromethyl)propyl]amino}-2-{5-fluoro-1-[(3-fluoropyridin-2-yl)methyl]-1H-pyrazolo[3,4-b]pyridin-3-yl}-5,5-dimethyl-5,7-dihydro-6H-pyrrolo[2,3-d]pyrimidin-6-one] yielded an IC50 [1] of 70 nM, a minimal effective concentration [2] of 1 µM and a solubility at 24 h [3] of 278 µg/mL (≈ 526 µM).
For `Cc1nc2c(cc1F)c(-c1nc(NCC(N)(CF)CF)c3c(n1)NC(=O)C3(C)C)nn2Cc1cccc(F)c1F` [Example 1, 4-{[2-Amino-3-fluoro-2-(fluoromethyl)propyl]amino}-2[1-(2,3-difluorobenzyl)-5-fluoro-6-methyl-1H-pyrazolo[3,4-b]pyridin-3-yl]-5,5-dimethyl-5,7-dihydro-6H-pyrrolo[2,3-d]pyrimidin-6-one], the IC50 [1] was 52 nM, the minimal effective concentration [2] was 0.3 µM and the solubility at 24 h [3] was 7.6 µg/mL (≈ 13.6 µM).
Compound `Cc1nc2c(cc1F)c(-c1nc(NCC(N)(CF)CF)c3c(n1)NC(=O)C3(C)C)nn2Cc1ncccc1F` [Example 4, 4-{[2-Amino-3-fluoro-2-(fluoromethyl)propyl]amino}-2-{5-fluoro-1-[(3-fluoropyridin-2-yl)methyl]-6-methyl-1H-pyrazolo[3,4-b]pyridin-3-yl}-5,5-dimethyl-5,7-dihydro-6H-pyrrolo[2,3-d]pyrimidin-6-one] has an IC50 [1] of 180 nM, a minimal effective concentration [2] of 1 µM and a solubility at 24 h [3] of 260 µg/mL (≈ 479 µM).
For `Cc1nc2c(cc1F)c(-c1nc(NCC(N)(CF)CF)c3c(n1)NC(=O)C3(C)C(F)(F)F)nn2Cc1ccccc1F` (single isomer, unassigned; ent-4) [Example 11, ent-4-{[2-Amino-3-fluoro-2-(fluoromethyl)propyl]amino}-2-[5-fluoro-1-(2-fluorobenzyl)-6-methyl-1H-pyrazolo[3,4-b]pyridin-3-yl]-5-methyl-5-(trifluoromethyl)-5,7-dihydro-6H-pyrrolo[2,3-d]pyrimidin-6-one (Enantiomer B)], the IC50 [1] was 390 nM and the minimal effective concentration [2] was 0.1 µM.
